Reference: the NIST ThermoML archive (doi:10.1021/acs.jced.8b00958)

Assay: mn = molality of the nth substance listed, in mol/kg
Conditions: 85 kPa, Liquid; for viscosity: Falling or rolling sphere viscometry; for speed of sound: Frequency=3 MHz, Single path-length method; for mass density: Vibrating tube method

O=C(CO)[C@@H](O)[C@H](O)[C@H](O)CO [D-fructose] + O
Conditions	mass density [kg/m3]	speed of sound [m/s]	viscosity [mPa·s]
288.15 K, m1 = 0.0498	1002.61	–	1.163
288.15 K, m1 = 0.1521	–	–	1.224
288.15 K, m1 = 0.2488	1016.24	1484.3	1.274
288.15 K, m1 = 0.3494	1022.9	1491.6	1.335
288.15 K, m1 = 0.4476	1029.24	1498.6	1.394
288.15 K, m1 = 0.5483	1035.58	–	1.465
288.15 K, m1 = 0.6491	1041.8	1512.6	1.529
298.15 K, m1 = 0.0498	1000.49	–	–
298.15 K, m1 = 0.1521	–	1506.7	0.964
298.15 K, m1 = 0.2488	1013.83	1513.1	0.993
298.15 K, m1 = 0.3494	1020.36	1519.4	1.038
298.15 K, m1 = 0.4476	1026.59	1525.6	1.08
298.15 K, m1 = 0.5483	1032.83	1532	1.133
298.15 K, m1 = 0.6491	1038.95	1538.4	1.178
308.15 K, m1 = 0.0498	997.41	–	–
308.15 K, m1 = 0.1521	1004.25	1528.8	0.774
308.15 K, m1 = 0.2488	–	1534.4	0.804
308.15 K, m1 = 0.3494	1016.98	1540.3	0.836
308.15 K, m1 = 0.4476	1023.1	1546	0.87
308.15 K, m1 = 0.5483	1029.27	1551.3	0.909
308.15 K, m1 = 0.6491	1035.3	1556.9	0.941
318.15 K, m1 = 0.0498	993.54	–	0.624
318.15 K, m1 = 0.1521	1000.27	–	0.648
318.15 K, m1 = 0.2488	–	1549.8	0.67
318.15 K, m1 = 0.3494	1012.8	1555	0.699
318.15 K, m1 = 0.4476	1018.84	1559.9	0.718
318.15 K, m1 = 0.5483	1024.89	1565.3	0.747
318.15 K, m1 = 0.6491	1030.8	1570.3	0.777
